Several values for one entry are separate records, joined by “and”; a condition that tells them apart may be missing. Equal values may be shown once. Read-outs that look alike come from different tables or passages of the source.
Experiments:
Calu-3 cell barrier [1] = conditions: human, 24 h, 200 µM
Caco-2 cell barrier [2] = conditions: human, 200 µM
HEK293T cells [3] = assay: Ca2+-release assay (Fluo-8-AM), GPCR off-target; assay type: cell-based
Description: Next, 50,000 HEK293T cells were seeded in a 96-well poly-D-lysine-coated plate and incubated at 37 °C for 24 h. Cells were incubated with 4 µM Fluo-8-AM in HBSS for 1 h at 37 °C. After 1 h, the Fluo-8/HBSS was replaced by 100 µL HBSS. Five images per second were taken using an ImageXpress Micro Confocal High Content Imaging System (Molecular Device, San Jose, CA, USA). […] An image was taken every second for the next 20 s. The MetaXpress Software Version 6.7.1.157 (San Jose, CA, USA) was used to analyze the data. A threshold of fluorescence intensity was defined using cells before treatment and all cells with a fluorescence signal above the threshold level were counted and related to all cells.

HEK293T cells [4] = assay: IP3 assay, GPCR off-target; assay type: cell-based
MDA-MB-231 cell line = test system: MDA-MB-231 cell line; design: method as in PMID 32470302; conditions: MDA-MB-231, 100 nM ref 39; cited from earlier work
HepG2 cells [5] = assay: In Vitro Micronuclei Plus assay (flow cytometry)
HEK293T cells [6] = assay: cAMP assay (GloSensor luciferase), GPCR off-target
Calu-3 cells [7] = conditions: human, 25 µM
[8] = Stability assay in human liver microsomes; assay type: in vitro ADME; conditions: pH 7.4, human liver microsomes 0.5 mg/mL
Description: The reaction was started with 1 mM NADPH diluted in potassium phosphate buffer. As control, samples without NAPDH were used. After various time points (0 h, 1 h, 2 h, 4 h), the reaction was stopped by adding ice-cold acetonitrile. The samples were centrifuged (5 min, 4 °C, 10,000× g) and supernatant was stored at −80 °C until the remaining drug concentration was determined by LC-MS/MS as described in detail below. The concentrations of the drugs were plotted against time and the elimination constant (k) was calculated from the slope (m):m = −k
Equation to determine half-life:T1/2 = 0.693/K
Equation to determine intrinsic clearance:Cl = Ln(2) × 1000/T1/2/protein concentration

Caco-2 cells [9] = conditions: human, 25 µM
P-glycoprotein = biological target: T1, P-glycoprotein (Homo sapiens, UniProt P08183); conditions: cited from earlier work
T1 construct: endogenous in cells; host or cells: Caco-2 (high P-gp), Calu-3 (low P-gp)

T cells = test system: T cells; design: method as in PMID 35336926, PMID 1360266; conditions: T cells ref 9, 34; cited from earlier work
HeLa = HeLa ref 6; cited from earlier work
HepG2 cells [10] = assay: Cell viability assay (Orangu WST-8, formazan-based)
Description: For the cell viability assay, HepG2 cells were incubated with various
normalized to the absorbance of the respective DMSO value to calculate cell viability. The experiments were performed in biological
(1 picture or pasted object on this page, not shown here)

Caco-2 cell barrier [11] = assay: Cell barrier integrity (TEER, cellZscope2); assay type: cell-based
Calu-3 cell barrier [12] = assay: Transport assay across cell barrier
[13] = test system: lung cancer cell line A549; design: method as in PMID 31931103; conditions: A549 ref 5; cited from earlier work
Caco-2 cell barrier [14] = assay: Transport assay across cell barrier
[15] = test system: colon cancer cell line HT29; conditions: HT29 ref 17; cited from earlier work
Caki-2 cells = assay: Cell viability assay (Orangu WST-8, formazan-based); conditions: 48 h
[16] = as above; conditions: human, Caki-2 cells
HCoV-229E = HCoV-229E ref 6; read-out: EC50 (50% reduction of the virus titer); cited from earlier work
Calu-3 cells [17] = assay: Cellular uptake assay (LC-MS/MS)
[18] = test system: lung fibroblast cell line MRC-5; design: method as in PMID 31931103; conditions: MRC-5 ref 5; cited from earlier work
HEK293T cells [19] = assay: Cell viability assay (Orangu WST-8, formazan-based); conditions: 48 h
[20] = as above; conditions: human, HEK293T cells
[21] = test system: non-transformed primary cells; conditions: several non-transformed primary cells ref 6, 20, 30; cited from earlier work
[22] = mice, formulated in hydroxypropyl-β-cyclodextrin, intraperitoneal ref 30; cited from earlier work
Calu-3 cells [23] = assay: Cell viability assay (Orangu WST-8, formazan-based)
primary M2 macrophages = test system: primary M2 macrophages; design: method as in PMID 35336926; conditions: primary M2 macrophages ref 9; read-out: CC50 (no cytotoxic effects up to); cited from earlier work
Caco-2 cells [24] = assay: Cell viability assay (Orangu WST-8, formazan-based); conditions: for effect on cell viability: 48 h
Chikungunya virus = test system: Chikungunya virus; design: method as in PMID 31931103; conditions: Chikungunya virus ref 5; read-out: EC50 (50% reduction of the virus titer); cited from earlier work
[25] = test system: hepatocellular carcinoma cell line Huh-7; conditions: Huh-7 ref 6; cited from earlier work
MERS-CoV = MERS-CoV ref 6; read-out: EC50 (50% reduction of the virus titer); cited from earlier work
primary dendritic cells = test system: primary dendritic cells; design: method as in PMID 35336926; conditions: primary dendritic cells ref 9; cited from earlier work
Caco-2 cells [26] = assay: Cellular uptake assay (LC-MS/MS)
primary monocytes = test system: primary monocytes; design: method as in PMID 35336926; conditions: primary monocytes ref 9; cited from earlier work
primary M1 macrophages = test system: primary M1 macrophages; design: method as in PMID 35336926; conditions: primary M1 macrophages ref 9; cited from earlier work
[27] = test system: various viruses, such as corona- and Ebolaviruses; conditions: cited from earlier work
primary immune cells = primary immune cells ref 9; cited from earlier work
[28] = 10 µM ionomycin, positive control

T1 sequence (P08183 whole entry): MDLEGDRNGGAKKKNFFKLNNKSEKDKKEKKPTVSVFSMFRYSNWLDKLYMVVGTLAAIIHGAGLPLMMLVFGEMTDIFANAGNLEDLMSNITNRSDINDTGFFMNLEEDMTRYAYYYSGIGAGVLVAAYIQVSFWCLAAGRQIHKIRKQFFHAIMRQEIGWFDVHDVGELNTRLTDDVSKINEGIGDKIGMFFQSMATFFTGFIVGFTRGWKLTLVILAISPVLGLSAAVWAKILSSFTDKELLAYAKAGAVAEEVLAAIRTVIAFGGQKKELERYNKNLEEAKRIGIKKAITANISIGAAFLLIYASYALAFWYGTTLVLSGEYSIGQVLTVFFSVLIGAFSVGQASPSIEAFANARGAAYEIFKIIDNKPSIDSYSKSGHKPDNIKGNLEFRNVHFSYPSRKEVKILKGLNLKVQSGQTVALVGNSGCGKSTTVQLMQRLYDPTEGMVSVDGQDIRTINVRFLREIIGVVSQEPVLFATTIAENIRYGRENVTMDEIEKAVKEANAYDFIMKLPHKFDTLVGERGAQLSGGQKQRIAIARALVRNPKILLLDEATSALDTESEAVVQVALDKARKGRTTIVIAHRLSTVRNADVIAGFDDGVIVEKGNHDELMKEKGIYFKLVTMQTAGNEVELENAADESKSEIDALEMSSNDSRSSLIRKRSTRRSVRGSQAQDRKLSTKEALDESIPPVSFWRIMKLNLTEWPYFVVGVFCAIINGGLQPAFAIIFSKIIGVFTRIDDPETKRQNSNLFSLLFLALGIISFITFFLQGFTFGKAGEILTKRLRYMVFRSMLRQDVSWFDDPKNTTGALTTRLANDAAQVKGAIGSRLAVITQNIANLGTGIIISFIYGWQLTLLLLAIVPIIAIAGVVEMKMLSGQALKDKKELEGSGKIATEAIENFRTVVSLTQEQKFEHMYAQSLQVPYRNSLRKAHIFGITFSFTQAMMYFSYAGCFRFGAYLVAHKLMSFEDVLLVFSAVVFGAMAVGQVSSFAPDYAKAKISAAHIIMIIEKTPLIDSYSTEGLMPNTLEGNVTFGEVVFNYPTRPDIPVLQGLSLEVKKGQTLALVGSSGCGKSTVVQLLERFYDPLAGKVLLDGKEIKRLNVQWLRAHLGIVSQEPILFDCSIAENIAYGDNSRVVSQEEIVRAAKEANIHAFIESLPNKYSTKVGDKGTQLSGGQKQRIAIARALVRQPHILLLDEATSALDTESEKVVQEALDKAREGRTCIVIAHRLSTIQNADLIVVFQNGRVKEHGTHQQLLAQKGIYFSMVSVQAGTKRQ

Structure (SMILES): NC(=O)N1c2ccccc2C=Cc2ccccc21 [carbamazepine]
- transport rate (Calu-3 cell barrier [1]): 74%
- transport rate (Caco-2 cell barrier [2]; 4 h): approx. 45%

Structure (SMILES): C[C@H](CCC(=O)O)C[C@H](C)C[C@H](C)C(=O)/C=C(\O)[C@H](C)C[C@H](C)C/C=C/[C@@H](C)[C@@H](O)[C@@H](C)[C@@H](O)C[C@@H]1CC[C@@](C)([C@H]2CC[C@@](C)([C@@H](C)O)O2)O1 [ionomycin, reference compound]
- induction of Ca2+-release (HEK293T cells [3]; [28]): induced significant increases
- induction of IP3 synthesis (HEK293T cells [4]; [28]): induced significant increases

Structure (SMILES): COc1cc2c(c(OC)n1)[C@]1(O)[C@H](O)[C@H](CN(C)C)[C@@H](c3ccccc3)[C@]1(c1ccc(C#N)cc1)O2 [zotatifin, reference compound]
- effect on cell cycle and apoptosis (MDA-MB-231 cell line): induces a G2 cell cycle block and apoptosis
- clastogenic effects (micronuclei) (HepG2 cells [5]; 10 nM only, not concentration dependent): some clastogenic and aneugenic effects

Structure (SMILES): C=C[C@@]1(C)CC(=O)[C@]2(O)[C@@]3(C)[C@@H](O)CCC(C)(C)[C@@H]3[C@H](O)[C@H](OC(C)=O)[C@@]2(C)O1 [forskolin, reference compound]
- induction of cAMP formation (HEK293T cells [6]; 5 µM forskolin, positive control): induced significant increases

Structure (SMILES): Cc1ccc(-c2cc(C(F)(F)F)nn2-c2ccc(S(N)(=O)=O)cc2)cc1 [celecoxib, reference compound]
- uptake rate (Calu-3 cells [7]): about 2.5 ng/µg protein
- half-life at 10 µM ([8]; 10 µM): 2.3 ± 0.5 h
- microsomal CLint at 10 µM ([8]; 10 µM, read-out: intrinsic clearance): 10.5 ± 2 µL/min/mg
- uptake rate (Caco-2 cells [9]): about 2.5 ng/µg protein
- substrate of P-glycoprotein (P-glycoprotein): not a substrate of P-glycoprotein

Structure (SMILES): NC(N)=Nc1nc(CSCCC(N)=NS(N)(=O)=O)cs1 [famotidine]
- transport rate (Calu-3 cell barrier [1]): 8.3%
- transport rate (Caco-2 cell barrier [2]; 4 h): 0.7%
- transport rate (Caco-2 cell barrier [2]; 24 h): 1.3%

Structure (SMILES): COC(=O)[C@H]1[C@@H](O)[C@@]2(O)c3c(OC)cc(O[C@@H]4O[C@@H]([C@H](O)CO)CO[C@H]4OC)cc3O[C@@]2(c2ccc(OC)cc2)[C@@H]1c1ccccc1 [silvestrol]
- cytotoxicity (no cytotoxic effects up to) (T cells): > 100 nM
- CC50 (HeLa): 5 nM
- effect on cell viability (HepG2 cells [10]; 48 h): only minor effects
- reduction of viability (HepG2 cells [10]; concentrations up to 1000 nM): about 50%
- effect on TEER readings (cell barrier integrity) (Caco-2 cell barrier [11]; 50 and 100 nM, 20 h): reduced TEER readings only slightly
- transport rate (Calu-3 cell barrier [12]; 50 nM, 24 h): 7.8%
- transport rate (Calu-3 cell barrier [12]; 100 nM, 4 h): 0.8%
- transport rate (Calu-3 cell barrier [12]; 100 nM, 24 h): 10.6%
- CC50 [13]: 9.42 nM
- transport rate (Caco-2 cell barrier [14]; 50 nM, 24 h): 1.3%
- transport rate (Caco-2 cell barrier [14]; 100 nM, 4 h): 0.5%
- transport rate (Caco-2 cell barrier [14]; 100 nM, 24 h): 1.9%
- CC50 [15]: 0.7 nM
- CC50 (Caki-2 cells): 37.2 nM
- CC50 at 48 h [16]: 37 nM
- EC50 (HCoV-229E): ~5 nM
- half-life at 100 nM ([8]; 100 nM): 11.6 ± 1.2 h
- microsomal CLint at 100 nM ([8]; 100 nM, read-out: intrinsic clearance): 1.7 ± 0.5 µL/min/mg
- uptake related to used amount of silvestrol (Calu-3 cells [17]; at maximum): ≈ 3.7%
- cellular uptake (maximum) (Calu-3 cells [17]; concentration- and time-dependent): about 7.7 pg/µg protein
- cytotoxicity (no cytotoxicity up to) [18]: > 50 µM
- clastogenic effects (micronuclei) (HepG2 cells [5]; 50 nM): clastogenic effects
- aneugenic effects (hypodiploid cells) (HepG2 cells [5]; silvestrol concentrations up to 50 nM): no aneugenic effects
- CC50 (HEK293T cells [19]): 15.9 nM
- CC50 at 48 h [20]: 16 nM
- cytotoxicity [21]: no major cytotoxicity
- intraperitoneal systemic availability [22]: 100%
- substrate of P-glycoprotein (P-glycoprotein): substrate
- induction of Ca2+-release (HEK293T cells [3]; silvestrol 10, 50, 100 nM): did not significantly induce
- effect on cell viability (Calu-3 cells [23]; 48 h): did not reduce viability below 50%
- reduction of viability (Calu-3 cells [23]; concentrations up to 1000 nM): about 50%
- CC50 (primary M2 macrophages): > 100 nM
- induction of cAMP synthesis (HEK293T cells [6]; silvestrol 10, 50, 100 nM): did not significantly induce
- effect on cell viability (Caco-2 cells [24]): did not reduce viability below 50%
- effect on cell viability (Caco-2 cells [24]; listed as Silvestrol): only minor effects
- reduction of viability (Caco-2 cells [24]; concentrations up to 1000 nM): about 50%
- change of cytotoxicity on inhibition of P-glycoprotein (Caco-2 cells [24]; preincubated with 1 µM cyclosporine 60 min, then 48 h): increased the cytotoxic potential
- EC50 (Chikungunya virus): ~5 nM
- CC50 [25]: 30 nM
- EC50 (MERS-CoV): ~5 nM
- cytotoxicity (no cytotoxic effects up to) (primary dendritic cells): > 100 nM
- cellular uptake (maximum) (Caco-2 cells [26]; 25 nM, 2 and 4 h): about 2.5 pg/µg protein
- uptake related to used silvestrol (Caco-2 cells [26]; 25 nM, at maximum): ≈ 1.3%
- change of intracellular silvestrol level on inhibition of P-glycoprotein (Caco-2 cells [26]; preincubated with 1 µM cyclosporine 60 min): leads to an increase in intracellular silvestrol levels
- CC50 (primary monocytes): 29 nM
- CC50 (primary M1 macrophages): 45.6 nM and 46 nM
- induction of IP3 synthesis (HEK293T cells [4]; silvestrol): did not significantly induce
- reduction of virus titers [27]: up to 4 log phases
- EC50 ([27]; read-out: EC50 for inhibition of virus replication): 1 to 100 nM
- EC50 ([27]; various viruses, such as corona- and Ebolaviruses (abstract), read-out: EC50): ~5 nM

Structure (SMILES): CC(C)Cc1ccc(C(C)C(=O)O)cc1 (centres unmarked) [ibuprofen, reference compound]
- genotoxicity by the criteria of OECD guideline 487 (HepG2 cells [5]; positive and negative control): no effects

Structure (SMILES): CONC(=O)[C@H]1[C@@H](O)[C@@]2(O)c3c(OC)cc(OC)cc3O[C@@]2(c2ccc(OC)cc2)[C@@H]1c1ccccc1 [CR31B (-)]
- cytotoxicity compared with silvestrol (primary immune cells): comparable cytotoxic effects to those of silvestrol

Structure (SMILES): O=C(O)CN(CCOCCOCCN(CC(=O)O)CC(=O)O)CC(=O)O [EGTA, reference compound]
- effect on TEER readings (cell barrier integrity) (Caco-2 cell barrier [11]; 10 mM, positive control): caused a drop in TEER readings

— article PMC9502993 (Pharmaceuticals, 2022)
